From patent US10377770B2 (Novartis AG, priority 2015, dated 2019)
pIC50: −log10 of the molar value.

Target: C-Raf FL (full length CRAF with Y340E and Y341E activating mutations, co-expressed with h14-3-3 zeta) (Homo sapiens (Human), UniProt P04049, Y340E/Y341E)
Test: In vitro Raf activity determination, AlphaScreen p-MEK readout, c-Raf (C-Raf FL)
Format: biochemical
Conditions: c-Raf approximately 4 nM, ATP 1 μM, pre-incubation 60 minutes, reaction 1 hour
How it was run: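 Full-length C-Raf (~4 nM) pre-incubated 60 min at room temperature with compound and kinase-dead biotinylated MEK1 (~10 nM) in Tris pH 7.5, 15 mM MgCl2, BSA, DTT. Reaction started with 1 μM ATP and run 1 h at room temperature. Phospho-MEK detected by AlphaScreen with anti-p-MEK antibody.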

Chain of C-Raf FL (full length CRAF with Y340E and Y341E activating mutations, co-expressed with h14-3-3 zeta) (P04049 whole entry Y340E/Y341E): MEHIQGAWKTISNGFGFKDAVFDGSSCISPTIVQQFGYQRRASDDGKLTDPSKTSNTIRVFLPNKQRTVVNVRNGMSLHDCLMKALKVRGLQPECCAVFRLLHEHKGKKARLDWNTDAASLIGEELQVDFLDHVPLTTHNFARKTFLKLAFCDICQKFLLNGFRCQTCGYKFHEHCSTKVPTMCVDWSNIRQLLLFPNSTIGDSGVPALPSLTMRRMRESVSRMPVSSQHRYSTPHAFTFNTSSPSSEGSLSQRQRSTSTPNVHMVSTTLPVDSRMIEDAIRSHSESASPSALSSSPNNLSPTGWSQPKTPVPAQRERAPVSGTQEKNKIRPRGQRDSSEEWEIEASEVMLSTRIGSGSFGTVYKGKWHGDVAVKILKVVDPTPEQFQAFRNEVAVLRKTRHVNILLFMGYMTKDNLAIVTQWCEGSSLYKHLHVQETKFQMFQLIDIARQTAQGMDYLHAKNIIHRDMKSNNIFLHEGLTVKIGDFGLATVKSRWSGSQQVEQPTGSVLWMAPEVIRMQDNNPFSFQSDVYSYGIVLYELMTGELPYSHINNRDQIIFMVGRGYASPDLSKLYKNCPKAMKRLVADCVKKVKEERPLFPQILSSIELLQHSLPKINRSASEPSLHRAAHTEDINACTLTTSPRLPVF
Chain of C-Raf FL (full length CRAF with Y340E and Y341E activating mutations, co-expressed with h14-3-3 zeta) (P63104 whole entry partner): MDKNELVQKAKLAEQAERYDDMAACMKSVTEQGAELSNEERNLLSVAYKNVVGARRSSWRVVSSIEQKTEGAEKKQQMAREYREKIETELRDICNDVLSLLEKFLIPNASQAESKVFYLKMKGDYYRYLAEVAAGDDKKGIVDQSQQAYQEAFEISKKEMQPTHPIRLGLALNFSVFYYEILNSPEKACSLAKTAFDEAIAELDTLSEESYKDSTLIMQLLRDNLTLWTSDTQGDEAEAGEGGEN

SMILES	pIC50
CCN1C(=O)OC2COCCC2c2cc(-c3cc(NC(=O)c4ccnc(C(C)(F)F)c4)ccc3C)cnc21 [Example 302, 2-(1,1-difluoroethyl)-N-(3-((4aS,11bR-cis)-7-ethyl-6-oxo-2,4,4a,6,7,11b-hexahydro-1H-pyrano[4,3-f]pyrido[2,3-d][1,3]oxazepin-10-yl)-methylphenyl) isonicotinamide]	10.00
CCN1C(=O)[C@@H]2COCC[C@H]2c2cc(-c3cc(NC(=O)c4cncc(C(F)(F)F)c4)ccc3C)cnc21 [Example 303, N-(3-((4aS,10bR)-6-ethyl-5-oxo-2,4,4a,5,6,10b-hexahydro-1H-pyrano[3,4-c][1,8]naphthyridin-9-yl)-4-methylphenyl)-5-(trifluoromethyl) nicotinamide]	10.00
CCN1C(=O)O[C@H]2COCC[C@@H]2c2cc(-c3cc(NC(=O)c4ccnc(C(F)(F)F)c4F)ccc3C)cnc21 [Example 304, N-(3-((4aR, 11bR)-7-ethyl-6-oxo-2,4,4a,6,7,11b-hexahydro-1H-pyrano[4,3-f]pyrido[2,3-d][1,3]oxazepin-10-yl)-4-methylphenyl)-3-fluoro-2-(trifluoromethyl) isonicotinamide]	9.30
CCN1C(=O)O[C@H]2COCC[C@@H]2c2cc(-c3cc(NC(=O)c4ccnc(C(F)(F)F)c4)ccc3C)cnc21 [Example 305, N-(3-((4aR,11bR)-7-ethyl-6-oxo-2,4,4a,6,7,11b-hexahydro-1H-pyrano[4,3-f]pyrido[2,3-d][1,3]oxazepin-10-yl)-4-methylphenyl)-2-(trifluoromethyl) isonicotinamide]	9.52
Cc1ccc(NC(=O)c2cncc(C(F)(F)F)c2)cc1-c1cnc2c(c1)[C@@H]1CCOC[C@H]1C(=O)N2CCO [Example 306, N-(3-((4aS,10bR)-6-(2-hydroxyethyl)-5-oxo-2,4,4a,5,6,10b-hexahydro-1H-pyrano[3,4-c][1,8]naphthyridin-9-yl)-4-methylphenyl)-5-(trifluoromethyl) nicotinamide]	10.00
Cc1ccc(NC(=O)c2ccnc(C(F)(F)F)c2F)cc1-c1cnc2c(c1)[C@@H]1CCOC[C@H]1C(=O)N2CCO [Example 307, 3-fluoro-N-(3 - ((4aS, 10bR)-6-(2-hydroxyethyl)-5-oxo-2,4,4a,5,6,10b-hexahydro-1H-pyrano[3,4-c][1,8]naphthyridin-9-yl)-4-methylphenyl)-2-(trifluoromethyl) isonicotinamide]	10.00
CCN1C(=O)[C@H]2COCC[C@@H]2c2cc(-c3cc(NC(=O)c4cccc(C(F)(F)F)c4)cnc3C)cnc21 [Example 309, N-(5-((4aR, 10bS)-6-ethyl-5-oxo-1,4,4a,5,6,10b-hexahydro-2H-pyrano[3,4 - c][1,8]naphthyridin-9-yl)-6-methylpyridin-3-yl)-3-(trifluoromethyl) benzamide]	9.52
CCN1C(=O)[C@H]2COCC[C@@H]2c2cc(-c3cc(NC(=O)c4ccnc(C(C)(C)F)c4)cnc3C)cnc21 [Example 310, N-(5-((4aR, 10bS)-6-ethyl-5-oxo-1,4,4a,5,6,10b-hexahydro-2H-pyrano[3,4-c][1,8]naphthyridin-9-yl)-6-methylpyridin-3-yl)-2-(2-fluoropropan-2-yl)isonicotinamide]	10.00
CCN1C(=O)[C@@H]2COCC[C@H]2c2cc(-c3cc(NC(=O)c4ccnc(C(F)(F)F)c4)ccc3C)cnc21 [Example 311, N-(3-((4aS, 10bR)-6-ethyl-5-oxo-1,4,4a,5,6,10b-hexahydro-2H-pyrano[3,4 - c][1,8]naphthyridin-9-yl)-4-methylphenyl)-2-(trifluoromethyl) isonicotinamide]	10.00
CCN1C(=O)[C@@H]2COCC[C@H]2c2cc(-c3cc(NC(=O)c4cccc(C(F)(F)F)c4)cnc3C)cnc21 [Example 312, N-(5-((4aS, 10bR)-6-ethyl-5-oxo-1,4,4a,5,6,10b-hexahydro-2H-pyrano[3,4-c][1,8]naphthyridin-9-yl)-6-methylpyridin-3-yl)-3-(trifluoromethyl) benzamide]	10.00
CCN1C(=O)[C@@H]2COCC[C@H]2c2cc(-c3cc(NC(=O)c4ccnc(C(C)(C)F)c4)cnc3C)cnc21 [Example 313, N-(5-((4aS, 10bR)-6-ethyl-5-oxo-1,4,4a,5,6,10b-hexahydro-2H-pyrano[3,4-c][1,8]naphthyridin-9-yl)-6-methylpyridin-3-yl)-2-(2-fluoropropan-2-yl)isonicotinamide]	9.30
CCN1C(=O)CC2CCOCCN2c2cc(-c3cc(NC(=O)c4ccnc(C(F)(F)F)c4)ccc3C)cnc21 (stereo not shown) [Example 314, N-(3-(8-ethyl-7-oxo-1,2,4,5,5a,6,7,8-octahydropyrido[3′, 2′:2,3][1,4]diazepino [1,7-d][1,4]oxazepin-11-yl)-4-methylphenyl)-2-(trifluoromethyl) isonicotinamide]	9.22
CCN1C(=O)CC2CCOCCN2c2cc(-c3cc(NC(=O)c4cccc(C(F)(F)F)c4)cnc3C)cnc21 (stereo not shown) [Example 315, N-(5-(8-ethyl-7-oxo-1,2,4,5,5a,6,7,8-octahydropyrido[3′, 2′:2,3][1,4]diazepino [1,7-d][1,4]oxazepin-11-yl)-6-methylpyridin-3-yl)-3-(trifluoromethyl) benzamide]	8.77
CCN1C(=O)CC2CCOCCN2c2cc(-c3cc(NC(=O)c4ccnc(C(F)(F)F)c4)ccc3C)cnc21 (stereo not shown) [Example 316, N-(3-(8-ethyl-7-oxo-1,2,4,5,5a,6,7,8-octahydropyrido[3′, 2′:2,3][1,4]diazepino [1,7-d][1,4]oxazepin-11-yl)-4-methylphenyl)-2-(trifluoromethyl) isonicotinamide]	9.10
Cc1ccc(NC(=O)c2ccnc(C(F)(F)F)c2)cc1-c1cnc2c(c1)N1CCOCCC1CC(=O)N2CCO (stereo not shown) [Example 318, N-(3-(8-(2-hydroxyethyl)-7-oxo-1,2,4,5,5a,6,7,8-octahydropyrido[3′, 2′:2,3][1,4]diazepino [1,7-d][1,4]oxazepin-11-yl)-4-methylphenyl)-2-(trifluoromethyl) isonicotinamide]	8.85
Cc1ncc(NC(=O)c2cccc(C(F)(F)F)c2)cc1-c1cnc2c(c1)N1CCOCCC1CC(=O)N2CCO (stereo not shown) [Example 319, N-(5-(8-(2-hydroxyethyl)-7-oxo-1,2,4,5,5a,6,7,8-octahydropyrido[3′, 2′:2,3][1,4]diazepino [1,7-d][1,4]oxazepin-11-yl)-6-methylpyridin-3-yl)-3-(trifluoromethyl) benzamide]	8.66
Cc1ccc(NC(=O)c2ccnc(C(F)(F)F)c2F)cc1-c1cnc2c(c1)N1CCOC[C@H]1CC(=O)N2CCO [Example 322, (R)-3-fluoro-N-(3-(7-(2-hydroxyethyl)-6-oxo-2,4,4a,5,6,7-hexahydro-1H-[1,4]oxazino[4,3-d]pyrido[2,3-b][1,4]diazepin-10-yl)-4-methylphenyl)-2-(trifluoromethyl) isonicotinamide]	9.52
Cc1ccc(NC(=O)c2cnnc(C(F)(F)F)c2)cc1-c1cnc2c(c1)N1CCOC[C@H]1CC(=O)N2CCO [Example 323, (R)-N-(3-(7-(2-hydroxyethyl)-6-oxo-2,4,4a,5,6,7-hexahydro-1H-[1,4]oxazino[4,3-d]pyrido[2,3-b][1,4]diazepin-10-yl)-4-methylphenyl)-6-(trifluoromethyl) pyridazine-4-carboxamide]	9.70
Cc1ccc(NC(=O)c2cnnc(C(F)(F)F)c2)cc1-c1cnc2c(c1)N1CCOC[C@@H]1CC(=O)N2CCO [Example 324, (S)-N-(3-(7-(2-hydroxyethyl)-6-oxo-2,4,4a,5,6,7-hexahydro-1H-[1,4]oxazino[4,3-d]pyrido[2,3-b][1,4]diazepin-10-yl)-4-methylphenyl)-6-(trifluoromethyl) pyridazine-4-carboxamide]	9.10
CCN1C(=O)C[C@@H]2COCCN2c2cc(-c3cc(NC(=O)c4cnnc(C(F)(F)F)c4)ccc3C)cnc21 [Example 325, (R)-N-(3-(7-ethyl-6-oxo-2,4,4a,5,6,7-hexahydro-1H-[1,4]oxazino[4,3-d]pyrido[2,3-b][1,4]diazepin-10-yl)-4-methylphenyl)-6-(trifluoromethyl) pyridazine-4-carboxamide]	10.00
CCN1C(=O)C[C@H]2COCCN2c2cc(-c3cc(NC(=O)c4cnnc(C(F)(F)F)c4)ccc3C)cnc21 [Example 326, (S)-N-(3-(7-ethyl-6-oxo-2,4,4a,5,6,7-hexahydro-1H-[1,4]oxazino[4,3-d]pyrido[2,3-b][1,4]diazepin-10-yl)-4-methylphenyl)-6-(trifluoromethyl) pyridazine-4-carboxamide]	9.30
CCN1C(=O)C[C@@H]2COCCN2c2cc(-c3cc(NC(=O)c4ccnc(C(F)(F)F)c4F)ccc3C)cnc21 [Example 327, (R)-N-(3-(7-ethyl-6-oxo-2,4,4a,5,6,7-hexahydro-1H-[1,4]oxazino[4,3-d]pyrido[2,3-b][1,4]diazepin-10-yl)-4-methylphenyl)-3-fluoro-2-(trifluoromethyl) isonicotinamide]	9.52
CCN1C(=O)C[C@@H]2COCCN2c2cc(-c3cc(NC(=O)c4cncc(C(F)(F)F)c4)ccc3C)cnc21 [Example 328, (R)-N-(3-(7-ethyl-6-oxo-2,4,4a,5,6,7-hexahydro-1H-[1,4]oxazino[4,3-d]pyrido[2,3-b][1,4]diazepin-10-yl)-4-methylphenyl)-5-(trifluoromethyl) nicotinamide]	10.00
Cc1ccc(NC(=O)c2cncc(C(F)(F)F)c2)cc1-c1cnc2c(c1)N1CCOC[C@H]1CC(=O)N2CCO [Example 329, (R)-N-(3-(7-(2-hydroxyethyl)-6-oxo-2,4,4a,5,6,7-hexahydro-1H-[1,4]oxazino[4,3-d]pyrido[2,3-b][1,4]diazepin-10-yl)-4-methylphenyl)-5-(trifluoromethyl) nicotinamide]	9.70
Cc1ccc(NC(=O)c2ccnc(C(F)(F)F)c2)cc1-c1cnc2c(c1)C1CCOCC1OC(=O)N2CCO (stereo not drawn) [Example 330, N-(3-((4,11b-cis)-7-(2-hydroxyethyl)-6-oxo-2,4,4a,6,7,11b-hexahydro-1H-pyrano[4,3-f]pyrido[2,3-d][1,3]oxazepin-10-yl)-4-methylphenyl)-2-(trifluoromethyl) isonicotinamide]	8.51
